The values below come from patent US20130303500A1, “COMPOUNDS AND METHODS FOR TREATING NEOPLASIA” (Medexis S.A., priority 2010, published 2013).

For one test, the system named is H460 (Lung) cells. The test is described as follows: Sulforhodamine B (SRB) assay, H460. Format: cell-based, human. As to the method:
(§1) Sulforhodamine B (SRB) assays were performed according to standard National Cancer Institute Guidelines. Briefly, human tumor cells from different cancer panels were seeded into 96 well plates in […] (plating densities ranging from 5-40,000 cells/well depending on the doubling time of individual cell lines) in serum-containing media for twenty-four hours prior to the addition of the compounds to be assayed. After 24 hours, one plate of each cell line was fixed in situ with trichloroacetic acid (TCA). The fixed slides were used to determine the cell population for each cell line at the time of drug addition (Tz). Each compound to be tested was solubilized in dimethyl sulfoxide (DMSO) and the desired concentration was then added to the medium and diluted serially 1:10 to provide a total of five or ten drug concentrations plus control (in a final volume of 200 μL). The starting dose before any dilution was 100 uM for all compounds.
(§2) Following drug addition, each culture was incubated for forty-eight hours. The assay was terminated with the addition of cold TCA. The supernatant was discarded, and the plates were washed with tap water and air dried. SRB solution was then added to each well. After staining, the bound stain was solubilized and the absorbance was read on an automated plate reader at a wavelength of 515 nm.
(§3) Using the absorbance measurements [time zero, (Tz), control growth, (C), and test growth in the presence of drug at the ten concentration levels (Ti)], the percentage growth was calculated at each of the drug concentrations levels. Percentage growth inhibition was calculated as:
(§4) [(Ti−Tz)/(C−Tz)]×100 for concentrations for which Ti>/=Tz
(§5) [(Ti−Tz)/Tz]×100 for concentrations for which Ti<Tz.
(§6) Three dose response parameters were calculated for each experimental agent. Growth inhibition of 50% (GI50) was calculated from [(Ti−Tz)/(C−Tz)]×100=50, which was the drug concentration resulting in a 50% reduction in the net protein increase (as measured by SRB staining) in control cells during the drug. The drug concentration resulting in total growth inhibition (TGI) was calculated from Ti=Tz. The LC50 (concentration of drug resulting in a 50% reduction in the measured protein at the end of the drug treatment as compared to that at the beginning) indicating a net loss of cells following treatment was calculated from [(Ti−Tz)/Tz]×100=−50.
(§7) Values were calculated for each of these three parameters when the level of activity was reached; however, if the effect was not reached or was exceeded, the value for that parameter was expressed as greater or less than the maximum or minimum concentration tested.
In general terms: In SRB staining, fixed cells bind dye roughly in proportion to their protein.

The test system of a further test is CAKI (Renal) cells. The test is described as follows: MTT cell proliferation/viability assay, CAKI. The test is classed as cell-based. The settings on record: 72 h. As to the method:
(§8) Cell proliferation/viability was assessed by the MTT [3-(4,5-dimethylthiazol-2-yl)-2,5-diphenyltetrazolium bromide] assay, which is commercially available (Sigma, St. Louis, Mo.). Cells were cultured in 96-well plates for twenty-four hours (7-10.000 cells/well) and incubated with various concentrations of the different compounds—as indicated in the Figures—in serum-containing medium (or left untreated) for seventy-two hours. At the end of incubation, the medium was aspirated and MTT dissolved in RPMI 1640 w/o phenol red was added to each well to a final concentration of 0.25 mg/ml. After four hours incubation in the dark (37° C., 5% CO2) the supernatant was discarded. The converted dye (blue formazan crystals) was solubilized by adding 200 μl dimethylsulfoxide to each well. Absorbance was measured at 550 nm with reference at 655 nm using a spectrophotometer with the respective filters. All assays were performed in triplicate.
(§9) The effect of the different compounds on the proliferation and viability of two cancer cell lines (DU145/prostate and CAKI/renal) was tested through quantitative (4,5-dimethylthiazol-2-yl)-2,5-diphenyltetrazolium bromide (MTT) assays.

In a further test the test system is DU145 (Prostate) cells. The test is described as follows: MTT cell proliferation/viability assay, DU145. Format: cell-based. Conditions: Homo sapiens, DU-145, 72 h. How it is done: as §8, §9
The next test has as its system HCT116 (Colon) cells. The test is described as follows: Sulforhodamine B (SRB) assay, HCT116. Format: cell-based, human. As to the method:
as §1, §2, §3, §4, §5, §6, §7

In a further test the test system is PC3 (Prostate) cells. The test is described as follows: Sulforhodamine B (SRB) assay, PC3. The test is classed as cell-based. The settings on record: Homo sapiens, Prostate cell, 48 h. As to the method: as §1, §2, §3, §4, §5, §6, §7
The next test deals with SF268 (CNS) cells. Put plainly: Sulforhodamine B (SRB) assay, SF268. Format: cell-based. Conditions: Homo sapiens. How it is done:
as §1, §2, §3, §4, §5, §6, §7

Another test relates to MCF7 (Breast) cells. Put plainly: Sulforhodamine B (SRB) assay, MCF7. Format: cell-based, human. How it is done: as §1, §2, §3, §4, §5, §6, §7

The TGI is the concentration giving total growth inhibition. Lower therefore signals greater sensitivity of the cells. For orientation: GI50 means the concentration at which growth is held to half of that of the control. Higher therefore signals lower sensitivity of the cells. Usually IC50 stands for the concentration that inhibits the measured activity by half. Take `C[C@]12CCC(=NOC3CCNC3)CC1CCC1C2CC[C@]2(C)C(=O)C(F)CC12` (stereo partly drawn) [Compound 2, (5S,10S,13S,16R)-16a-fluoro-10,13-dimethyl-3-((S)-pyrrolidin-3-yloxyimino)-tetradecahydro-2H-cyclopenta[a]phenanthren-17(14H)-one]: the TGI is 0.007 µM in the test with H460 (Lung) cells (H460 Lung, SRB, 48 h); 0.156 µM with HCT116 (Colon) cells (HCT116 Colon, SRB, 48 h); 0.478 µM in the test on MCF7 (Breast) cells (MCF7 Breast, SRB, 48 h). For the same molecule, the CC50 in the test with H460 (Lung) cells (Homo sapiens, NCI-H460, 48 h, read-out: LC50) turned out to be 0.054 µM; in the test with HCT116 (Colon) cells (Homo sapiens, HCT-116, 48 h, read-out: LC50) it was 0.998 µM; in the test with PC3 (Prostate) cells (read-out: LC50) it was 0.962 µM; with SF268 (CNS) cells (SF-268, 48 h, read-out: LC50), 0.112 µM; in the test with MCF7 (Breast) cells (Homo sapiens, MCF7, 48 h, read-out: LC50), 9.78 µM. Also, the GI50 is below 0.001 µM in the test on H460 (Lung) cells (Homo sapiens, NCI-H460, H460 Lung, SRB, 48 h); 0.008 µM with HCT116 (Colon) cells (Homo sapiens, HCT-116, HCT116 Colon, SRB, 48 h); 0.046 µM in the test on PC3 (Prostate) cells (PC3 Prostate, SRB); 0.003 µM in the test with SF268 (CNS) cells (SF-268, SF268 CNS, SRB, 48 h); 0.021 µM with MCF7 (Breast) cells (Homo sapiens, MCF7 Breast, SRB, 48 h). The IC50 was determined as 8.75 µM in the test on CAKI (Renal) cells and 0.25 µM with DU145 (Prostate) cells. Moreover, the IC (TGI) in the test on PC3 (Prostate) cells (PC3 Prostate, SRB) amounted to 0.414 µM; with SF268 (CNS) cells (SF-268, SF268 CNS, SRB, 48 h) it was 0.043 µM.
